Columns and labels:
WM cells [1] = conditions: cited from earlier work
WM cells [2] = conditions: cited from earlier work; remark: listed apart in the source
[3] = test system: C1013G/CXCR4-WM cell lines (BCWM1; MWCL1); assay: Cytotoxicity (MTT) of anti-WM agents, 48 h exposure; assay type: cell-based, human; conditions: vs control vector-infected cells
Text: FIGS. 13A and 13B show GSEA enrichment plots of multiple drug resistance and response to drug signature genes in C1013G/CXCR4-mutated cells and control vector-infected cells (control cells), respectively. The plotted curves show the enrichment score and reflect the degree to which each gene (vertical lines) is represented at the top or bottom of the ranked gene list. The heat map indicates the relative abundance (left to right) of the genes specifically enriched in the mutated cells as compared with the control cells. Gene sets were considered enriched with a FDR always <0.25. Normalized enrichments score (NES) and FDR are shown per each gene set analyzed. FIGS. 13C-13G show the effects on C1013G/CXCR4-WM cell lines (BCWM1; MWCL1) or control vector-infected cells (control) exposed to everolimus, ibrutinib, idelalisib, bortezomib, and carfilzomib for 48 h.
Everolimus, idelalisib, ibrutinib, bortezomib, and carfilzomib were purchased from Selleck Chemicals (Houston, Tex.). Drugs were dissolved in dimethylsulfoxide and subsequently diluted in cell culture medium (10% fetal bovine serum) immediately before use.

BCWM.1-mCherry+ cells = assay: In vivo homing and tumor progression of wild-type WM cells; set-up: species or system SCID/Bg mice; conditions: human IgM ELISA at end of study; P<0.05
Experimental: Serum was collected at the end of the study. […] Cell toxicity was performed by MTT. […] Bars indicate standard deviation.
Human serum IgM levels were determined by using a human IgM ELISA assay (ZeptoMetrix, Buffalo, N.Y.), according to the manufacturer's protocol.
SCID/Bg mice (n=5/group) were injected with BCWM.1 infected with either precision LentiORF/CXCR4/GFP (CXCR4^+)- or empty vector probe/RFP (control)-infected BCWM.1 cells. After three weeks, mice were euthanized and organs harvested. Hematoxylin-eosin staining, immunohistochemistry for human-CD20 and -CXCR4 were performed on explanted organs. Independent experiments were conducted to evaluate differences in survival (SCID/Bg mice, n=7/group). Similar studies were conducted using […]/CXCR4-mutated cells and control vector-infected cells (control cells). In vivo homing studies were performed using BCWM.1-mCherry^+ cells: cells were injected intravenously into […] mice and treated with either BMS-936564 or control antibody (10 mg/kg, intraperitoneally; 3-4 times per week for 3 weeks). The ability of BMS-936564 to modulate WM homing to BM, spleen and lymph nodes was evaluated ex vivo at the third week on explanted tissues, by using a fluorescence microscope (Nikon Eclipse 80i, Melville, N.Y.) (Roccaro et al., 2013).
The anti-WM activity of BMS-936564 was also tested in vivo using wild-type WM cells. BCWM.1-mCherry^+ cells were injected intravenously into SCID/Bg mice and treated mice with either BMS-936564 or control antibody.
As CXCR4 inhibition is thought to induce stem cell and tumor cell mobilization, it was hypothesized that BMS-936564 may also induce mobilization of WM cells leading to increased chemosensitivity to anti-WM agents. Accordingly, the effect of BMS-936564 in modulating tumor progression and WM cell dissemination to distant BM niches in vivo was evaluated as monotherapy or in combination with bortezomib.

Compound | migration of WM cells (WM cells [1]) | adhesion of WM cells to fibronectin, stromal cells, and endothelial cells (WM cells [2]) | sensitivity of C1013G/CXCR4-mutated WM cells compared with unmutated control cells [3] | serum IgM levels (BCWM.1-mCherry+ cells)
c1cc(CN2CCCNCCNCCCNCC2)ccc1CN1CCCNCCNCCCNCC1 [AMD3100, plerixafor] | significantly inhibit | significantly inhibit | – | –
CC(C)C[C@H](NC(=O)[C@H](Cc1ccccc1)NC(=O)c1cnccn1)B(O)O [bortezomib, reference compound] | – | – | equally sensitive | significantly reduced
CC(C)C[C@H](NC(=O)[C@H](CCc1ccccc1)NC(=O)CN1CCOCC1)C(=O)N[C@@H](Cc1ccccc1)C(=O)N[C@@H](CC(C)C)C(=O)[C@@]1(C)CO1 [carfilzomib] | – | – | equally sensitive | –
CO[C@H]1C[C@@H]2CC[C@@H](C)[C@@](O)(O2)C(=O)C(=O)N2CCCC[C@H]2C(=O)O[C@H]([C@H](C)C[C@@H]2CC[C@@H](OCCO)[C@H](OC)C2)CC(=O)[C@H](C)/C=C(\C)[C@@H](O)[C@@H](OC)C(=O)[C@H](C)C[C@H](C)/C=C/C=C/C=C/1C [everolimus] | – | – | resistance | –
CC[C@H](Nc1ncnc2[nH]cnc12)c1nc2cccc(F)c2c(=O)n1-c1ccccc1 [idelalisib] | – | – | resistance | –
